Structures are written as SMILES. Calls of active or inactive are those of the source.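 The calls were made as follows: active = AC50 no more than ten times the top concentration tested, that is within one log above it; inconclusive = flat curve fit with activity between 30% and 70%, or invalid poor fit; inactive = AC50 beyond ten times the top tested dose.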

This test relates to S. cerevisiae Mot1-301 ts growth rescue, BacTiter-Glo ATP luminescence. Briefly: restored Mot1-301 yeast growth at 38.5C – whole organism, S. cerevisiae, Mot1-301 ts mutant, luminescence, dose retest, SUMOylation pathway inhibitor project, confirmation (AID 463204).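 Also: growth at restrictive 38.5 degrees C of Mot1-301 OY566 strain; actives raise luminescence by restoring growth of the ts mutant at high temperature.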
Consider `Cc1ccnc(NC(=O)CNC(=O)c2ccc(Br)o2)c1`, for which the AC50 (as a rule, the midpoint of the concentration-response curve, whichever way the signal moves) was > 42 µM (inactive).

On to `O=C1CCCN1CCC(=O)N1CCCC(N2CCN(c3ccccc3F)CC2)C1` (configuration not stated), for which the AC50 was > 42 µM (inactive).

For the compound `COC(C(=O)Nc1ccnn1C1CCN(Cc2cnn(C)c2)CC1)c1ccccc1` (configuration not stated), the AC50 is > 42 µM (inactive).

Regarding `O=C(O)CN(c1ccccn1)S(=O)(=O)c1ccc(Cl)cc1`, the AC50 was > 42 µM (inactive). With `CC(=O)Nc1cccc(NC(=S)Nc2ccc(F)cc2F)c1` the figure was > 42 µM (inactive). In the case of `COc1ccc2[nH]c(=O)c(CN(C(=O)c3ccccn3)c3ccccc3)cc2c1` it was > 42 µM (inactive). Take `O=C(Nc1ccc(Cl)cc1)N1CCC(c2nc(-c3ccc(F)cc3)no2)CC1`: the AC50 is > 42 µM (inactive). In the case of `Cc1[nH]nc2c1C(c1cccs1)C1=C(CC(C)(C)CC1=O)N2` (configuration not stated) it was > 42 µM (inactive); in that of `COc1cccc(C(=O)NCc2ccc(-c3nc4ccccc4s3)cc2)c1`, > 42 µM (inactive). For the compound `Cc1nc2ccc(NC(=O)c3ccco3)cc2s1`, the AC50 was > 42 µM (inactive). In the case of `Fc1ccc2c(c1)nnn2C1CCN(Cc2nnnn2C2CCCCC2)CC1` it was > 42 µM (inactive). In the case of `CCCCc1n[nH]c(=S)n1Cc1ccc(C)cc1` it was > 42 µM (inactive). As for `COc1ccc(CCN(C)CCCC(C#N)(c2ccc(OC)c(OC)c2)C(C)C)cc1OC` (configuration not stated), the AC50 is > 42 µM (inactive). With `O=C(Cc1cccs1)N1CCCC(c2nc3c(nnn3Cc3ccc(F)cc3)c(=O)[nH]2)C1` (configuration not stated) the figure was > 42 µM (inactive); with `Cc1nc2nc[nH]n2c(=O)c1NS(=O)(=O)c1ccc([N+](=O)[O-])cc1`, > 42 µM (inactive); with `COCC(C)n1c(SCC(=O)NNC(=O)c2ccccc2)nc2ccccc2c1=O` (configuration not stated), > 42 µM (inactive).

With `COc1ccccc1N1CCN(C(=O)c2sc3ncnc(N4CCN(c5ccccn5)CC4)c3c2C)CC1`, the AC50 is > 42 µM (inactive). Turning to `COc1ccc(CN2C(=O)C(=O)N(CC(N)=O)C2=O)cc1`, the AC50 was > 42 µM (inactive). As to `COc1ccc(-c2cc(CC3(C(=O)O)CCN(C(=O)OC(C)(C)C)CC3)on2)c(OC)c1`, the AC50 is > 42 µM (inactive). In the case of `COc1cccc(Nc2nc(C)nc3c2oc2ccccc23)c1` it was > 42 µM (inactive). With `O=C(N/C(=C/c1ccc2c(c1)OCO2)C(=O)N1CCOCC1)c1cccs1` the figure was > 42 µM (inactive); with `COC(=O)[C@@H]1[C@@H](C(=O)OC)C2(c3ccccc3-c3ccccc32)N(c2ccc(Cl)cc2)N1C#N`, 1.72 µM; with `O=C(COc1ncnc2ccccc12)Nc1ccc(Cl)c(S(=O)(=O)N2CCOCC2)c1`, > 42 µM (inactive).

In the case of `COc1ccc(NC(=O)c2cc(S(=O)(=O)Nc3ccc(OC)cc3)cs2)cc1`, the AC50 was > 42 µM (inactive). With `COc1ccc(OC)c(CCNC(=O)c2ccc3c(c2)N(Cc2ccc(F)cc2)CCS3)c1` the figure was > 42 µM (inactive); with `Cc1cc(S(=O)(=O)N2CCCCC2CCNC(=O)C(=O)NCC2CCCO2)ccc1F` (configuration not stated), > 42 µM (inactive). With `CCOc1cc(C(=S)N2CCOCC2)ccc1OC(=O)c1ccc(C)cc1` the figure was > 42 µM (inactive). With `Cc1ccnc(NC(c2cccnc2)c2ccc3cccnc3c2O)c1` (configuration not stated) the figure was > 42 µM (inactive); with `Cc1cc(C(=O)N/N=C/c2ccc3c(c2)OCO3)c2ccccc2n1`, > 42 µM (inactive). In the case of `C/C(=N\NC(=S)Nc1ccccc1)C1Cc2ccccc2C(=O)O1` (configuration not stated), the AC50 is > 42 µM (inactive). With `CCCCn1c(/C=N/Nc2nc3ccccc3[nH]2)nc2ccccc21` the figure was 3.98 µM.

Take `Cc1cc(C)cc(C(=O)N2CCC3(CC2)NCCc2[nH]cnc23)c1`: the AC50 was > 42 µM (inactive). Consider `CC(=O)C1(c2ccccc2)CCNCC1`, for which the AC50 is > 21 µM (inactive). In the case of `COc1ccccc1CNc1ncnc2nc[nH]c12` it was > 42 µM (inactive). With `C[C@H](NC(=O)OC(C)(C)C)C(=O)NCC1CCC(C(=O)N[C@@H](Cc2ccccc2)C(=O)O)CC1` (some centres not stated) the figure was > 42 µM (inactive); with `COc1ccc(C2CC3(CC(C)(C)NC(=S)N3)Oc3cc(O)cc(C)c32)cc1` (configuration not stated), > 42 µM (inactive); with `CCCOc1ccc(C(=O)NCc2ccco2)cc1`, > 42 µM (inactive). In the case of `Cc1cccc(NS(=O)(=O)c2ccc3[nH]c(=O)cc(C(=O)O)c3c2)c1`, the AC50 was > 21 µM (inactive). With `CCOC(=O)C1CCN(Cc2ccc(OCc3ccccc3)cc2)CC1` the figure was > 42 µM (inactive); with `COc1ccc(Oc2c(C)oc3cc(OC(=O)N(C)C)ccc3c2=O)cc1`, > 42 µM (inactive); with `O=C(c1ccc(F)cc1)C(CN1CCOCC1)c1ccccc1` (configuration not stated), 1.3 µM.

As for `CCCC1Cc2c(sc3ncnc(N)c23)CO1` (configuration not stated), the AC50 is > 42 µM (inactive). For the compound `COC(=O)c1cc2occc2n1Cc1nc(-c2ccccc2C)oc1C`, the AC50 was > 42 µM (inactive). With `COc1ccccc1CNCc1cc(OC)c(OC)c(OC)c1` the figure was > 42 µM (inactive).

With `CN(C)S(=O)(=O)c1cccc(NC(=O)COc2nc3ccccc3nc2N2CCOCC2)c1`, the AC50 was > 42 µM (inactive). In the case of `c1ccc(C(c2ccccc2)N2CCN(C(c3ccccn3)c3nnnn3C3CCCC3)CC2)cc1` (configuration not stated) it was > 42 µM (inactive); in that of `C/C(=N/OCO/N=C(\C)c1ccccc1)c1ccccc1`, > 42 µM (inactive).

As for `COc1ccc(-c2[nH]nc3c2C(c2ccncc2)C(C#N)=C(N)O3)cc1` (configuration not stated), the AC50 is > 42 µM (inactive). With `COc1cc(C(=O)Nc2sc3c(c2C(=O)O)CCC(C)C3)cc(OC)c1OC` (configuration not stated) the figure was > 42 µM (inactive). With `Cc1cc(O)c(/C=N/Nc2cccc(Cl)c2)c(=O)o1` the figure was 3.95 µM; with `Nc1cc(-c2ccc(Cl)cc2)nn1S(=O)(=O)c1ccc(Cl)cc1`, > 42 µM (inactive); with `COC(=O)c1ccc(NC(=O)CCN2CCN(c3ccccc3)CC2)cc1`, > 42 µM (inactive). With `Clc1cnc(Oc2ccc(Oc3ncc(Cl)cc3Cl)cc2)c(Cl)c1` the figure was > 42 µM (inactive).

Consider `Cc1cc(C)n2c(SCC(C)C)nnc2n1`, for which the AC50 was > 42 µM (inactive).

Regarding `Cc1ccc(N(C(C)C(=O)O)S(=O)(=O)c2c(C)n[nH]c2C)cc1` (configuration not stated), the AC50 is > 42 µM (inactive). With `CCOc1ccc(CCNC(=O)COC(=O)COc2ccc(C(C)=O)cc2)cc1OCC` the figure was > 42 µM (inactive).

`C[C@H]1O[C@H]1P(=O)(O)O`: the AC50 is > 42 µM (inactive). With `O=C(O)CCc1ccc(-c2ccccc2)n1NC(=O)c1cccs1` the figure was > 42 µM (inactive); with `O=C(CSc1nnc(CNC(=O)c2ccccc2)o1)NCc1ccco1`, > 42 µM (inactive); with `O=c1[nH]cnc2cc(Cl)ccc12`, > 21 µM (inactive). In the case of `CCN(CC)S(=O)(=O)c1ccc(S(=O)(=O)N2CCC(C(=O)NC3CCN(Cc4ccccc4)CC3)CC2)cc1` it was > 42 µM (inactive).

Consider `Cc1ccc(NC(=O)Cn2c(CCC(=O)O)ccc2-c2cccs2)cc1`, for which the AC50 was > 42 µM (inactive). In the case of `CN1CCCC(n2nc(Cc3ccc(Cl)cc3)c3ccccc3c2=O)CC1` (configuration not stated) it was > 42 µM (inactive); in that of `CC1(C)NC(=O)N(CC(=O)O)C1=O`, > 42 µM (inactive). For the compound `COc1cccc(-n2c(SCC(=O)NC3CCCCC3)nc3n[nH]c(C)c3c2=N)c1`, the AC50 was > 42 µM (inactive). In the case of `Cc1cnc(C(=O)OCC(=O)Nc2ccc(C)c(S(=O)(=O)N(C)C)c2)cn1` it was > 42 µM (inactive); in that of `Cc1cc(NC(=O)/C=C/c2ccco2)ccc1NC(=O)c1ccccc1`, > 42 µM (inactive). In the case of `O=C(Oc1ccccc1N1C(=O)C2CC=CCC2C1=O)c1ccc(Br)cc1` (configuration not stated) it was > 42 µM (inactive). In the case of `Cn1c(Cn2nnc3ccccc32)nnc1SCC(=O)c1ccc(F)cc1` it was > 42 µM (inactive); in that of `Cc1cc(C)c(S(=O)(=O)c2cccc(C)c2C)c(=O)[nH]1`, > 42 µM (inactive); in that of `CCn1nc(C(=O)OCc2cccc(S(=O)(=O)N(C)C)c2)c2ccccc2c1=O`, > 42 µM (inactive). On to `CCOc1ccc(N(CC(=O)NC2CCC(C)CC2)S(=O)(=O)c2c(C)noc2C)cc1` (configuration not stated), for which the AC50 was > 42 µM (inactive). With `Cc1ccc(S(=O)(=O)N(C)CC(=O)O/N=C(\N)c2ccccn2)cc1` the figure was > 42 µM (inactive). With `CN(C)C1(c2nnnn2-c2ccc(Cl)cc2)CCCCC1` the figure was 27.9 µM.

As for `Cc1ccc(NC(=O)CN2CCN(CCN=CC3=C(O)CC(C)(C)CC3=O)CC2)cc1`, the AC50 was > 42 µM (inactive).

For the compound `CN(C)c1cccc(C(=O)Nc2cc(C(F)(F)F)ccc2-n2cnc3ccccc32)c1`, the AC50 was > 42 µM (inactive).

As to `Oc1c(Br)cc(Br)cc1C=Nc1cccnc1`, the AC50 was 4.88 µM. In the case of `CCC1(CC)NC(=O)N(CC(=O)N2N=C(c3ccc(Cl)cc3)CC2c2ccco2)C1=O` (configuration not stated) it was > 42 µM (inactive); in that of `CCCCCC(=O)Nc1ccc(-c2csc(N)n2)cc1`, > 42 µM (inactive); in that of `Cn1c(CN2CCOCC2)nnc1SCC(N)=O`, > 42 µM (inactive). In the case of `CN(CCOc1ccc(-c2ccn(S(=O)(=O)c3cccc4ccccc34)n2)cc1)c1ccccn1` it was > 42 µM (inactive); in that of `CC1=C/C(=N\OS(=O)(=O)c2ccccc2)C(C(C)C)=CC1=O`, 0.86 µM.

As for `COc1ccc(C(=O)OCC(=O)c2ccccc2)cc1S(=O)(=O)N1CCOCC1`, the AC50 is > 42 µM (inactive). In the case of `O=C(Nc1ccccn1)c1ccc(CN(c2ccccc2)S(=O)(=O)c2ccccc2)cc1` it was > 42 µM (inactive). In the case of `COc1ccc(NC(=O)Nc2ccc(OC)cc2)cc1` it was > 42 µM (inactive). In the case of `CCOc1cc(S(=O)(=O)NCc2ccc3c(c2)OCO3)c(C)cc1C` it was > 42 µM (inactive); in that of `Cc1cc(C)cc(C(=O)NC(CC(N)=O)c2ccc(NCCN3CCOCC3)c([N+](=O)[O-])c2)c1` (configuration not stated), > 42 µM (inactive).

(Values after PubChem BioAssay AID463204 (Broad Institute, 2010).)
